Data published in paper doi:10.1101/2021.09.30.462449v1 (biorxiv, 2021).

What was measured:
[1] = molecular target: MELK (Homo sapiens, UniProt Q14680); assay: ThermoFisher kinase profiling; format: biochemical; details: read-out: % inhibition at 1 μM
[2] = molecular target: PL^pro (Severe acute respiratory syndrome coronavirus 2, UniProt P0DTD1); assay: FRET peptide cleavage assay; format: biochemical
[3] = molecular target: MLCK (MLCK2) (Homo sapiens, UniProt Q32MK0); assay: biochemical; details: read-out: % inhibition mean (Lanthascreen)
[4] = molecular target: AMPK (A1/B1/G3) (Homo sapiens, UniProt Q13131); assay: biochemical; details: read-out: % inhibition mean (Lanthascreen)
[5] = molecular target: AXL R499C (Homo sapiens, UniProt P30530, R499C); assay: biochemical; details: read-out: % inhibition mean (Lanthascreen)
[6] = molecular target: BMPR1A (ALK3) (Homo sapiens, UniProt P36894); assay: biochemical; details: read-out: % inhibition mean (Lanthascreen)
[7] = molecular target: CDK13/cyclin K (Homo sapiens, UniProt Q14004); assay: biochemical; details: read-out: % inhibition mean (Lanthascreen)
CDK13/cyclin K, sequence (Q14004 whole entry): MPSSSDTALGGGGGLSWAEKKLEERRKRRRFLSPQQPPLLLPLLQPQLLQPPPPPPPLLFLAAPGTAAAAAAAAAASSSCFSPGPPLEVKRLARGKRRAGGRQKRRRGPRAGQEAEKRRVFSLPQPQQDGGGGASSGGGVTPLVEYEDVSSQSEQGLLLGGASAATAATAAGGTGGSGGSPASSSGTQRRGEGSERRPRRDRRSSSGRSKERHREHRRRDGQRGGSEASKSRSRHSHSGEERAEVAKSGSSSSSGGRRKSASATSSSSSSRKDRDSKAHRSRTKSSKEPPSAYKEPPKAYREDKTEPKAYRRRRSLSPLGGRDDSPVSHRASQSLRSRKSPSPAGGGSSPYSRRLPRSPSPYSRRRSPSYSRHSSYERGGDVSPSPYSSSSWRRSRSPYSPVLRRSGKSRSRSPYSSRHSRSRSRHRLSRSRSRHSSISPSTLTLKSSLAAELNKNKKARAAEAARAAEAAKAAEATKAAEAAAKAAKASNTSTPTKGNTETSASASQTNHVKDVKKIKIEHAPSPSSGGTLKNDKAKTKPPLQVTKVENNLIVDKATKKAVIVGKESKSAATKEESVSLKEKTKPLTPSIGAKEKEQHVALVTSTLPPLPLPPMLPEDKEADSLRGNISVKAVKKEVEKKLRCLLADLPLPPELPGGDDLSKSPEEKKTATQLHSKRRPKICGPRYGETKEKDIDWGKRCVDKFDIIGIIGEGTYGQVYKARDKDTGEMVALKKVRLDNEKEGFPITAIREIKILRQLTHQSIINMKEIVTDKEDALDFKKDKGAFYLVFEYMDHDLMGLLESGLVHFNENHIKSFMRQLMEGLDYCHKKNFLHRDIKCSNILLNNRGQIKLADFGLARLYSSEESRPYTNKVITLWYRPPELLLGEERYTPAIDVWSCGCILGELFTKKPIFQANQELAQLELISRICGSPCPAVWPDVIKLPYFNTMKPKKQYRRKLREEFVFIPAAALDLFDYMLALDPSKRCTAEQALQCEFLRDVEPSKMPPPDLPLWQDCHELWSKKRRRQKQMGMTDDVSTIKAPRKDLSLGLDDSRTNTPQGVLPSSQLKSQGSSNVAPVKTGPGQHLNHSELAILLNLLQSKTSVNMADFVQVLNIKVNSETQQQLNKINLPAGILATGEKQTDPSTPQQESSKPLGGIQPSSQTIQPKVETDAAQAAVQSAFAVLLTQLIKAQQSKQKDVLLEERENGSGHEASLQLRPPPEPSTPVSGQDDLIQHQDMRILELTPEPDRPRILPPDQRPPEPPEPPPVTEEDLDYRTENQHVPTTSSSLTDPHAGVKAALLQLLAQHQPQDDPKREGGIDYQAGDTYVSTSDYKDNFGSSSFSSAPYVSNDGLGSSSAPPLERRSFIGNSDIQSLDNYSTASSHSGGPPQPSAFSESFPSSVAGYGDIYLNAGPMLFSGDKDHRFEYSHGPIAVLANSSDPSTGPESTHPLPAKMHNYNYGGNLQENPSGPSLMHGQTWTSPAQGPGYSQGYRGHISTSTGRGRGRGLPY
CDK13/cyclin K, sequence (O75909 whole entry partner): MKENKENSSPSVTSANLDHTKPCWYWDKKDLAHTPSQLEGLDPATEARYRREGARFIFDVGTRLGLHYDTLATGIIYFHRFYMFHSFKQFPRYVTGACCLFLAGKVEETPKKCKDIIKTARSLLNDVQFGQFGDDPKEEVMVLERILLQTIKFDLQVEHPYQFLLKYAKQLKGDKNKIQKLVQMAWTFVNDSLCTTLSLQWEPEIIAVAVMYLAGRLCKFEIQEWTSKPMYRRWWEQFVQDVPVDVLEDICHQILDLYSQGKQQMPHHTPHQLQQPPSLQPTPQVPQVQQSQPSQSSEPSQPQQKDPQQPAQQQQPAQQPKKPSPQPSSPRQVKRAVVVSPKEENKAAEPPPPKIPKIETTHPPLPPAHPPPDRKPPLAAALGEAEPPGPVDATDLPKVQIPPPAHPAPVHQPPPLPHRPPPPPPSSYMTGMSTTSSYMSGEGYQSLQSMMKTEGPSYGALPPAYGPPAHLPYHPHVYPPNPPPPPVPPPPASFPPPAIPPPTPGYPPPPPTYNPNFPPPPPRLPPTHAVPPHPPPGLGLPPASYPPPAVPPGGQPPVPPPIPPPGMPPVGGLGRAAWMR

[8] = molecular target: CDK16 (PCTK1)/cyclin Y (Homo sapiens, UniProt Q00536); assay: biochemical; details: read-out: % inhibition mean (Lanthascreen)
[9] = molecular target: CDK2/cyclin E1 (Homo sapiens, UniProt P24941); assay: biochemical; details: read-out: % inhibition mean (Lanthascreen)
[10] = molecular target: DDR2 (Homo sapiens, UniProt Q16832); assay: biochemical; details: read-out: % inhibition mean (Lanthascreen)
[11] = molecular target: KIT T670E (Homo sapiens, UniProt P10721, T670E); assay: biochemical; details: read-out: % inhibition mean (Lanthascreen)
[12] = molecular target: MERTK (cMER) A708S (Homo sapiens, UniProt Q12866, A708S); assay: biochemical; details: read-out: % inhibition mean (Lanthascreen)
[13] = molecular target: RET G691S (Homo sapiens, UniProt P07949, G691S); assay: biochemical; details: read-out: % inhibition mean (Lanthascreen)
[14] = molecular target: STK17B (DRAK2) (Homo sapiens, UniProt O94768); assay: biochemical; details: read-out: % inhibition mean (Lanthascreen)
[15] = molecular target: TAOK1 (Homo sapiens, UniProt Q7L7X3); assay: biochemical; details: read-out: % inhibition mean (Lanthascreen)
TAOK1, sequence (Q7L7X3 whole entry): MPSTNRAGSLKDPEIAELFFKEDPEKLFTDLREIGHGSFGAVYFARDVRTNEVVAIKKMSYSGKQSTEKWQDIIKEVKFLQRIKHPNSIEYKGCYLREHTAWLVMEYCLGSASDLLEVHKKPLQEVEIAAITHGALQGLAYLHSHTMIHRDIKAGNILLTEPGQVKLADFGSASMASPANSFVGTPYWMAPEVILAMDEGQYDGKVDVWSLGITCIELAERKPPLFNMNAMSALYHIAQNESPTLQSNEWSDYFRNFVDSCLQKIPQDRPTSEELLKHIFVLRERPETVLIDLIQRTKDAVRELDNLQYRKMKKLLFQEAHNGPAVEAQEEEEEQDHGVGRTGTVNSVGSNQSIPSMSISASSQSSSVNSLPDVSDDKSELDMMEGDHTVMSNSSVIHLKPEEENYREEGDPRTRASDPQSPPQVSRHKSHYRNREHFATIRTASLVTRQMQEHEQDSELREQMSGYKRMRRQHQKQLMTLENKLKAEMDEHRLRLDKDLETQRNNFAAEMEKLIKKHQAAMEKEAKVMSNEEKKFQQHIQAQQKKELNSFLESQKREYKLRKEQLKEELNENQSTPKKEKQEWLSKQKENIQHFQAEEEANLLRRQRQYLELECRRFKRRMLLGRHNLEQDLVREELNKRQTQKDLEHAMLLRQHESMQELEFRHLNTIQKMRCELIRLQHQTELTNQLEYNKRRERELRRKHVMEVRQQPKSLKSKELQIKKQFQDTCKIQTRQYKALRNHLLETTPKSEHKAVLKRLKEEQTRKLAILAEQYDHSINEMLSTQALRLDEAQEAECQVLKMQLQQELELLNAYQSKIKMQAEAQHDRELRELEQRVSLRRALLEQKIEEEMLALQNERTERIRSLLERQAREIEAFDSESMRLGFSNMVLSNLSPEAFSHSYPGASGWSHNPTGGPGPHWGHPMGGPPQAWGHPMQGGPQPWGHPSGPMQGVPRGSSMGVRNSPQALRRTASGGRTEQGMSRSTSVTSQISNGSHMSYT

[16] = molecular target: TLK1 (Homo sapiens, UniProt Q9UKI8); assay: biochemical; details: read-out: % inhibition mean (Lanthascreen)
[17] = molecular target: ULK1 (Homo sapiens, UniProt O75385); assay: biochemical; details: read-out: % inhibition mean (Lanthascreen)
[18] = molecular target: ABL1 Y253F (Homo sapiens, UniProt P00519, Y253F); assay: biochemical; details: read-out: % inhibition mean (Z'Lyte)
[19] = molecular target: ALK (Homo sapiens, UniProt Q9UM73); assay: biochemical; details: read-out: % inhibition mean (Z'Lyte)
[20] = molecular target: EPHB2 (Homo sapiens, UniProt P29323); assay: biochemical; details: read-out: % inhibition mean (Z'Lyte)
EPHB2, sequence (P29323 whole entry): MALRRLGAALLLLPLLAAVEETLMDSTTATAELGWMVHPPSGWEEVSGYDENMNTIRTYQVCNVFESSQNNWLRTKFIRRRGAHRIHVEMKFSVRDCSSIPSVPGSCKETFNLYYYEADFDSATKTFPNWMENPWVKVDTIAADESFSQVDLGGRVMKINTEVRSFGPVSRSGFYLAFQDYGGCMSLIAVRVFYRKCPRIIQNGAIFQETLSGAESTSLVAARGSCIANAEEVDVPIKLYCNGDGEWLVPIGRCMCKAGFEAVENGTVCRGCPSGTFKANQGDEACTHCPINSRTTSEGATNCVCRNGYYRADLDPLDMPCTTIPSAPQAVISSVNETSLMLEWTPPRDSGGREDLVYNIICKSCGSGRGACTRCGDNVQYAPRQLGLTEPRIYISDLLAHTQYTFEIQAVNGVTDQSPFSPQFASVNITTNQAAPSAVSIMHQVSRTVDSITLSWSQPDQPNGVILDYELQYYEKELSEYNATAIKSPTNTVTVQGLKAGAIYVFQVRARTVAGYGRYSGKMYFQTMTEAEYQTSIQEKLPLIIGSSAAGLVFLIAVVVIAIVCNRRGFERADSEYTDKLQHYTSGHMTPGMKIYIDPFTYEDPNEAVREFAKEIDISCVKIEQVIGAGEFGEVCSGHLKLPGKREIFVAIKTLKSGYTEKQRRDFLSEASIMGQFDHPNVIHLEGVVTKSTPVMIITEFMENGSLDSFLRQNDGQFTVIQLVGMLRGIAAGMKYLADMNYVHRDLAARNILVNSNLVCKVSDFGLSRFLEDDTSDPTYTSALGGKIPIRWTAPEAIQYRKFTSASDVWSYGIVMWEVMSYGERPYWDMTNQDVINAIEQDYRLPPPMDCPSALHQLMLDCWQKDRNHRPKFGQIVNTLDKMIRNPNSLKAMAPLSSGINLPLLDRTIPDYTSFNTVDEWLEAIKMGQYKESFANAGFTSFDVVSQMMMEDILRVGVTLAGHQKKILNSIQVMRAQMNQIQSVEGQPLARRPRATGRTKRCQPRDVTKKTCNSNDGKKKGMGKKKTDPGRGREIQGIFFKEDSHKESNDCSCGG

[21] = molecular target: FGFR2 (Homo sapiens, UniProt P21802); assay: biochemical; details: read-out: % inhibition mean (Z'Lyte)
[22] = molecular target: IKBKB (IKK beta) (Homo sapiens, UniProt O14920); assay: biochemical; details: read-out: % inhibition mean (Z'Lyte)
[23] = molecular target: MAPK1 (ERK2) (Homo sapiens, UniProt P28482); assay: biochemical; details: read-out: % inhibition mean (Z'Lyte)
[24] = molecular target: MAPK14 (p38 alpha) (Homo sapiens, UniProt Q16539); assay: biochemical; details: read-out: % inhibition mean (Z'Lyte)
[25] = molecular target: MST1R (RON) (Homo sapiens, UniProt Q04912); assay: biochemical; details: read-out: % inhibition mean (Z'Lyte)
[26] = molecular target: PAK6 (Homo sapiens, UniProt Q9NQU5); assay: biochemical; details: read-out: % inhibition mean (Z'Lyte)
[27] = molecular target: PDGFRB (PDGFR beta) (Homo sapiens, UniProt P09619); assay: biochemical; details: read-out: % inhibition mean (Z'Lyte)
[28] = molecular target: PHKG2 (Homo sapiens, UniProt P15735); assay: biochemical; details: read-out: % inhibition mean (Z'Lyte)
PHKG2, sequence (P15735 whole entry): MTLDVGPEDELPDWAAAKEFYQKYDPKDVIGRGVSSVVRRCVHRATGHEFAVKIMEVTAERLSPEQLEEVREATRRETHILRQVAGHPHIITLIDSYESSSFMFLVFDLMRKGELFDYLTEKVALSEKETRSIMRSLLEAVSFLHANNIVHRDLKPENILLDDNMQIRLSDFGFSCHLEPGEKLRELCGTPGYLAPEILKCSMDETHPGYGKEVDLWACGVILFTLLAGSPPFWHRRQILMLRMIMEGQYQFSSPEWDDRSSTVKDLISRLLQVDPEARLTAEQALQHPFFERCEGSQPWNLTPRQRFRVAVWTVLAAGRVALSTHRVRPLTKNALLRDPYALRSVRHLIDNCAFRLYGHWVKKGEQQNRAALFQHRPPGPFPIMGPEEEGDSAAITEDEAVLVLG

[29] = molecular target: STK33 (Homo sapiens, UniProt Q9BYT3); assay: biochemical; details: read-out: % inhibition mean (Lanthascreen)
STK33, sequence (Q9BYT3 whole entry): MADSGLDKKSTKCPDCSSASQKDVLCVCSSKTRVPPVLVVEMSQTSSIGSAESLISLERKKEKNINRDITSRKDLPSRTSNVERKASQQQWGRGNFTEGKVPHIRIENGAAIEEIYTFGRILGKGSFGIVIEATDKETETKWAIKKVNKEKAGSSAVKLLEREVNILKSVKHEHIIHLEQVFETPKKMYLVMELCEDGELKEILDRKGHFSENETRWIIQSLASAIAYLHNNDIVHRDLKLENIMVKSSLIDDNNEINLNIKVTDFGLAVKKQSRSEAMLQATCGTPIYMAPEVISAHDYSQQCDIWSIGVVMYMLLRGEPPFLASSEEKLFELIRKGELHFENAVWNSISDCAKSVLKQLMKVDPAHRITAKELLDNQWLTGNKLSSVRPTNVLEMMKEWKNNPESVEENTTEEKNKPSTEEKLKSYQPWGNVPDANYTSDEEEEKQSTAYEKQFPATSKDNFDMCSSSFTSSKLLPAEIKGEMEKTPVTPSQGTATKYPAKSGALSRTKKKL

Question: How did the inhibition at 1 µM [1] turn out when `COc1ccc2nc3cc(Cl)ccc3c(Nc3cc(CN4CCCC4)c(O)c(CN4CCCC4)c3)c2n1` [Pyronaridine, 4-[(7-Chloro-2-methoxybenzo[b][1,5]naphthyridin-10-yl)amino]-2,6-bis(1-pyrrolidinylmethyl)phenol phosphate (1:4)] was run?
Answer: Its inhibition at 1 µM is 31%.

Question: What about the IC50 [2] of the same molecule?
Answer: The IC50 was 1860 ± 580 nM.

Question: And the inhibition at 1 µM [3]?
Answer: Its inhibition at 1 µM is -6%.

Question: What about the inhibition at 1 µM [4] of the same molecule?
Answer: Its inhibition at 1 µM is -1%.

Question: And the inhibition at 1 µM [5]?
Answer: The inhibition at 1 µM was 3%.

Question: What about the inhibition at 1 µM [6] of the same molecule?
Answer: Its inhibition at 1 µM is 10%.

Question: And the inhibition at 1 µM [7]?
Answer: Its inhibition at 1 µM is -13%.

Question: What about the inhibition at 1 µM [8] of the same molecule?
Answer: Its inhibition at 1 µM is -12%.

Question: And the inhibition at 1 µM [9]?
Answer: The inhibition at 1 µM was 0%.

Question: And the inhibition at 1 µM [10]?
Answer: The inhibition at 1 µM was 0%.

Question: And the inhibition at 1 µM [11]?
Answer: The inhibition at 1 µM was 1%.

Question: And the inhibition at 1 µM [12]?
Answer: Its inhibition at 1 µM is 0%.

Question: And the inhibition at 1 µM [13]?
Answer: The inhibition at 1 µM was -3%.

Question: And the inhibition at 1 µM [14]?
Answer: Its inhibition at 1 µM is -4%.

Question: And the inhibition at 1 µM [15]?
Answer: The inhibition at 1 µM was -4%.

Question: What about the inhibition at 1 µM [16] of the same molecule?
Answer: Its inhibition at 1 µM is 12%.

Question: What about the inhibition at 1 µM [17] of the same molecule?
Answer: Its inhibition at 1 µM is -4%.

Question: And the inhibition at 1 µM [18]?
Answer: Its inhibition at 1 µM is -1%.

Question: And the inhibition at 1 µM [19]?
Answer: The inhibition at 1 µM was -1%.

Question: And the inhibition at 1 µM [20]?
Answer: Its inhibition at 1 µM is 4%.

Question: What about the inhibition at 1 µM [21] of the same molecule?
Answer: Its inhibition at 1 µM is -1%.

Question: What about the inhibition at 1 µM [22] of the same molecule?
Answer: Its inhibition at 1 µM is 1%.

Question: What about the inhibition at 1 µM [23] of the same molecule?
Answer: The inhibition at 1 µM was -1%.

Question: And the inhibition at 1 µM [24]?
Answer: The inhibition at 1 µM was 1%.

Question: What about the inhibition at 1 µM [25] of the same molecule?
Answer: Its inhibition at 1 µM is 2%.

Question: What about the inhibition at 1 µM [26] of the same molecule?
Answer: Its inhibition at 1 µM is -2%.

Question: And the inhibition at 1 µM [27]?
Answer: Its inhibition at 1 µM is 0%.

Question: What about the inhibition at 1 µM [28] of the same molecule?
Answer: Its inhibition at 1 µM is -2%.

Question: What about the inhibition at 1 µM [29] of the same molecule?
Answer: Its inhibition at 1 µM is 11%.
